Data as given in ChEMBL document CHEMBL1201862, “PubChem BioAssay data set” (2004).
Calls of active or inactive are those of the source.

Key:
[1] = biological target: T1, Long-chain-fatty-acid--AMP ligase FadD28 (Mycobacterium tuberculosis, UniProt P9WQ59); assay: Fluorescence polarization aasay to screen for inhibitors that compete for the binding of FadD28 to a bisubstrate Measured in Biochemical System Using Plate Reader - 2147-01_Inhibitor_Dose_CherryPick_Activity.; assay type: functional, Mycobacterium tuberculosis H37Rv
T1 sequence (P9WQ59 whole entry): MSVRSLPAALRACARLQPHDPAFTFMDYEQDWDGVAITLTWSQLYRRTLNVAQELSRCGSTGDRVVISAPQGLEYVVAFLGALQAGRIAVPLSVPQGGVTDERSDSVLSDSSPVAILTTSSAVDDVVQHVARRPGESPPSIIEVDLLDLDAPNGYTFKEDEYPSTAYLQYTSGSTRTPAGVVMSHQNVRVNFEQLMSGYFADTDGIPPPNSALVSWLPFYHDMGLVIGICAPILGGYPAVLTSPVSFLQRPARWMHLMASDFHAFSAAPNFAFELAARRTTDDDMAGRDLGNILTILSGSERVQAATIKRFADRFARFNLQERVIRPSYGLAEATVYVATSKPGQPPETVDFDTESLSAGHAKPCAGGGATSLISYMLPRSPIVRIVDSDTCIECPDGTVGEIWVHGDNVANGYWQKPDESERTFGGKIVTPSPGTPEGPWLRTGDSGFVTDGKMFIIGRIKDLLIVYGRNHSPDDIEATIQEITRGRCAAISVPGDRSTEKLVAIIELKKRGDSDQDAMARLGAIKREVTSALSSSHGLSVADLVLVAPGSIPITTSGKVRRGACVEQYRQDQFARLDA

Streptococcus = assay: GAS UMAA2166 growth inhibition – luminescence, BacTiterGlo, counter-screen for streptokinase expression inhibitor project, dose response (AID 1915); assay type: functional, organism-based;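 note: potency for reduction of bacterial viability or growth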
[2] = tested on: Streptococcus sp. 'group A'; assay: Streptococcus pyogenes SK(-)GAS viability under kanamycin – luminescence, BacTiterGlo, confirmation, counter-screen for streptokinase expression inhibitor project, dose response (AID 1900); assay type: functional, organism-based
[3] = biological target: T2, Probable nicotinate-nucleotide adenylyltransferase (Staphylococcus aureus (strain N315), UniProt P65502); assay type: functional, Staphylococcus aureus subsp. aureus N315; conditions: read-out: IC50_Mean;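 for IC50 Mean: confirmatory dose-response retesting of NadD inhibitor hits first found in an ultra-high-throughput screen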
[4] = biological target: T2, Probable nicotinate-nucleotide adenylyltransferase; assay type: functional, Staphylococcus aureus subsp. aureus N315
Streptokinase A = biological target: T3, Streptokinase A (Streptococcus pyogenes serotype M1, UniProt P10520); assay: viability-normalized secreted streptokinase activity reduction – plasminogen activation absorbance, OD405, dose response (AID 1914); assay type: functional, Streptococcus pyogenes M1 GAS;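 note: secreted streptokinase activity via plasminogen activation per viability signal from cell pellet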
T3 sequence (P10520 whole entry): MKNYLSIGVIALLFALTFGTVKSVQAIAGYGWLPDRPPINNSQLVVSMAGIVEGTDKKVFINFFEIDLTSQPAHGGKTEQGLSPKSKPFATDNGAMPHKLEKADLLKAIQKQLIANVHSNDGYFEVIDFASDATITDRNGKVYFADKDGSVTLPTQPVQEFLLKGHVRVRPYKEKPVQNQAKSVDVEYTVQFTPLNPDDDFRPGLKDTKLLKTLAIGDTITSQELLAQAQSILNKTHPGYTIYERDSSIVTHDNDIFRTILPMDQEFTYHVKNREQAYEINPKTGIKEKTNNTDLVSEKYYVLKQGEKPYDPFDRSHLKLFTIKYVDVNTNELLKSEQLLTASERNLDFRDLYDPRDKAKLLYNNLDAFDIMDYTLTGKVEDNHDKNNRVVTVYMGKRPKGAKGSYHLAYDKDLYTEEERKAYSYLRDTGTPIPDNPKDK

[5] = biological target: T4, Endoribonuclease toxin MazF (Escherichia coli K-12, UniProt P0AE70); assay: substrate-only fluorescence increase artefacts – biochemical, single-stranded RNase substrate, counter-screen for MazEF activator project, dose response (AID 588502); assay type: functional
T4 sequence (P0AE70 whole entry): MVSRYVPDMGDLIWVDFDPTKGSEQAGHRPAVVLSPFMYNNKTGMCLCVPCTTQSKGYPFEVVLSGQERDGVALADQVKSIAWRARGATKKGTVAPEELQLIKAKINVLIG

[6] = biological target: T4, Endoribonuclease toxin MazF; assay: activation of MazEF endoribonuclease cleavage – biochemical, fluorescence, single-stranded RNA substrate, uHTS hits, dose response (AID 588481); assay type: functional
[7] = biological target: 26S proteasome non-ATPase regulatory subunit 14 (Homo sapiens, UniProt O00487); assay: inhibition of proteasome subunit RPN11 – biochemical, fluorescence polarization, uHTS hits, confirmation (AID 602368); assay type: functional
Prothrombin = Prothrombin (Bos taurus, UniProt P00735); assay: thrombin protease inhibitors – biochemical, fluorescence polarization, uHTS hits, dose response (AID 602369); assay type: functional
[8] = biological target: 72 kDa type IV collagenase (Homo sapiens, UniProt P08253); assay: Dose Response validation of uHTS RPN11 inhibitor hits using a MMP-2 Fluorescence assay.; assay type: functional
[9] = biological target: T5, Small ubiquitin-related modifier 1 (Homo sapiens, UniProt P63165); assay: SUMO1 protein interaction blockers, potency – biochemical, fluorescence polarization, uHTS hits, dose response (AID 624382); assay type: functional; conditions: read-out: IC50_Mean
[10] = biological target: T5, Small ubiquitin-related modifier 1; assay: SUMO1 protein-protein binding blockers, potency – biochemical, FRET, dose response (AID 624383); assay type: functional; conditions: read-out: IC50_Mean
[11] = biological target: T6, DNA repair protein RAD52 homolog (Homo sapiens, UniProt P43351); assay type: functional, biochemical
T6 sequence (P43351 whole entry): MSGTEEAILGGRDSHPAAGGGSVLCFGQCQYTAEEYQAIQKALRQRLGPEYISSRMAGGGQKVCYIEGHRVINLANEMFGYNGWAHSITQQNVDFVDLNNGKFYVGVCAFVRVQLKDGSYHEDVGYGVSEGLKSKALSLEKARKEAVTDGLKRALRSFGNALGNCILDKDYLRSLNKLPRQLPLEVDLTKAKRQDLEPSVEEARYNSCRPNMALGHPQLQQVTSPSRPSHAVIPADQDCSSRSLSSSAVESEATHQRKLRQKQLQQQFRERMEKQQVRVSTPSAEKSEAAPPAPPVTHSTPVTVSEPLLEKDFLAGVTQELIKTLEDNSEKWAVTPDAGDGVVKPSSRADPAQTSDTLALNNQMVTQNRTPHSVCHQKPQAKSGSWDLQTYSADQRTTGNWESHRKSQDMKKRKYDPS

[12] = biological target: T7, DNA repair and recombination protein RAD54-like (Homo sapiens, UniProt Q92698); assay: RAD54 Holliday junction migration blockers – biochemical, fluorescence, cherry-picked samples, dose series, confirmation (AID 651657); assay type: functional
T7 sequence (Q92698 whole entry): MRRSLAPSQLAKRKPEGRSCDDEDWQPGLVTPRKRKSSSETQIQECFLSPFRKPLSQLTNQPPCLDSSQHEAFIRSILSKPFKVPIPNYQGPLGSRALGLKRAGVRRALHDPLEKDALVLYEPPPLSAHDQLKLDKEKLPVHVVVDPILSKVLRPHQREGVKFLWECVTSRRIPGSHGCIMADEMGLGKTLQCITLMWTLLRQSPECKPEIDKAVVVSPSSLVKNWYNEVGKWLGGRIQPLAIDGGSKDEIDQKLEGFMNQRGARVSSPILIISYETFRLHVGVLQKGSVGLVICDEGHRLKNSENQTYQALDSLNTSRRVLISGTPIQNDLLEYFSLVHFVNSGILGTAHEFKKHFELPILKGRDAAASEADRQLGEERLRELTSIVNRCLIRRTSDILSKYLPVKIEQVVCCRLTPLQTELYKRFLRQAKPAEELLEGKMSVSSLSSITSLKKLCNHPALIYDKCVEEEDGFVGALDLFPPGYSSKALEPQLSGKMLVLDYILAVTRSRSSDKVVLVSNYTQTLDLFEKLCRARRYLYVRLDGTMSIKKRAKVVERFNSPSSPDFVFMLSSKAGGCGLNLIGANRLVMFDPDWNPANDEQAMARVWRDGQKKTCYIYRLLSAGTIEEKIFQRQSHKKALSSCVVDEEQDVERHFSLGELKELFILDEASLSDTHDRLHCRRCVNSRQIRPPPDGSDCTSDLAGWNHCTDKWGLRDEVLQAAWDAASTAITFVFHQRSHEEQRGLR

Vero = assay: viability of Vero cells under compound – cytotoxicity control for flavivirus capping enzyme inhibitors (AID 588742); assay type: functional; conditions: Chlorocebus sabaeus

T2 sequence (P65502 whole entry): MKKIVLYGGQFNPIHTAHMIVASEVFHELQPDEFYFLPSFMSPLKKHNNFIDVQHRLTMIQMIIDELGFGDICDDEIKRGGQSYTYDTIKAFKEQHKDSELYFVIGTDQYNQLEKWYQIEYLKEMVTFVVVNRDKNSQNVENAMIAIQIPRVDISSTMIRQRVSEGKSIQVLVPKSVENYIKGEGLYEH
72 kDa type IV collagenase, sequence (P08253 whole entry): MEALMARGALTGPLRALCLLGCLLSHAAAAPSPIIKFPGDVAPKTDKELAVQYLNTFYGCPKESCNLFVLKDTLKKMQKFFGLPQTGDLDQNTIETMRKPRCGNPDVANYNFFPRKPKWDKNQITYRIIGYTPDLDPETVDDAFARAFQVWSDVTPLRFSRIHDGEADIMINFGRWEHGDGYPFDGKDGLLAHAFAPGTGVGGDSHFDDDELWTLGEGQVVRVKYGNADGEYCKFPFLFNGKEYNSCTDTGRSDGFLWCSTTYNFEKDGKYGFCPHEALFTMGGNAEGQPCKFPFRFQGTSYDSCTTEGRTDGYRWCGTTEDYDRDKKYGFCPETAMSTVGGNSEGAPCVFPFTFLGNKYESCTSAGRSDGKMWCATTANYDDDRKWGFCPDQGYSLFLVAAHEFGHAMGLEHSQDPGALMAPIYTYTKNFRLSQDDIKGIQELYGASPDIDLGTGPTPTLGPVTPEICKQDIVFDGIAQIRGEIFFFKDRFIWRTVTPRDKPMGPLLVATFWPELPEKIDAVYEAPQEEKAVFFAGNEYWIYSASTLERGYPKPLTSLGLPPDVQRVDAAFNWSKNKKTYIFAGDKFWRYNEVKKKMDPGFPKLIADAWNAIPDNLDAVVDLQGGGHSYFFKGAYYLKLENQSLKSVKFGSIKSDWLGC
26S proteasome non-ATPase regulatory subunit 14, sequence (O00487 whole entry): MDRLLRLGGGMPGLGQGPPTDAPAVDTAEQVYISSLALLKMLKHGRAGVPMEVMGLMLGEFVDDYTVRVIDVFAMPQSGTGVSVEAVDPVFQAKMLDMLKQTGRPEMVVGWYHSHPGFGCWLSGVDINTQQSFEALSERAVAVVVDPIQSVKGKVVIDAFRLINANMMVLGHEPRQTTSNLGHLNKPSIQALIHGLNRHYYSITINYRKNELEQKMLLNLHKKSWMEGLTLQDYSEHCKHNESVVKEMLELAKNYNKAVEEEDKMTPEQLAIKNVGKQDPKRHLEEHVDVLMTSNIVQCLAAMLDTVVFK
T5 sequence (P63165 whole entry): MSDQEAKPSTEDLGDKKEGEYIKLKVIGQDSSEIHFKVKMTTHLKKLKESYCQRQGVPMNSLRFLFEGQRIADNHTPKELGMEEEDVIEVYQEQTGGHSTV

Structure (SMILES)	IC50 [3]	IC50 [4]	IC50 [7]	IC50 (Prothrombin)	IC50 [8]	AC50 [11]	other results
CCc1cccc2c(C(=O)CN3C(=O)C(=O)N(C4CCCC4)C3=O)c[nH]c12							AC50 [1]: 32.3 µM (active)
Cc1cc(C)c2nc(NNC(=O)c3cc(=O)c4ccccc4o3)sc2c1	28.2 µM (active)	4.41 µM (active)					EC50 (Streptococcus): 7.16 µM (active); EC50 [2]: 0.296 µM (active); EC50 (Streptokinase A): > 150 µM (not active)
CCCN1C(=O)/C(=C/c2c(NCCCOC(C)C)nc3c(C)cccn3c2=O)SC1=S			0.09 µM (active)	0.148 µM (active)	> 100 µM (inactive)		EC50 [5]: 34.2 µM (inactive); EC50 [6]: 16 µM (active)
NN=C1c2ccccc2C(=O)C1C(=O)C(c1ccccc1)c1ccccc1 (configuration not stated)	25.5 µM (active)	13.8 µM (active)					
CCCCCCCCCCCC1NC(N)=NC(CCCO)=C1C(=O)OC (configuration not stated)			19.9 µM (active)	42.3 µM (active)	85.8 µM (active)	7.72 µM (active)	IC50 [9]: > 66.6 µM (inactive); IC50 [10]: 10.1 µM (active)
CN1CCC[C@H]1CCNc1ccc2c(=O)c3ccccc3n(C)c2c1						2.17 µM (active)	AC50 [12]: 5.81 µM (active); CC50 (Vero): 30.7 µM (active)
